Measurements taken from patent US9012178B2, “Dipeptides to enhance yield and viability from cell cultures” (Amgen Inc., priority 2010, dated 2015).
In brackets after ≈: the same amount, converted by molar mass. Where a SMILES comes first, the peptide text is derived from it.

Columns and labels:
CHO cell line A = experiment: Fed-batch shake flask production culture in serum-free defined medium: titer and viability; assay type: cell-based, Chinese hamster; details: culture period 13 to 14 days
Experimental: (§1) Materials and Methods: Dipeptides were purchased from Bachem (Torrance, Calif.). Each dipeptide was dissolved in water for preparation of concentrated stock solution (100 mg/mL), followed by sterile filtration using Spin-X® filter unit (Corning Inc., Corning, N.Y.).
(§2) On Day 0, prior to inoculation of production cell lines, appropriate volumes of concentrated dipeptide stock solution were added to serum-free defined production medium to bring the final dipeptide concentration at 0.5-2.0 g/L. For controls, the same volume of water was added. Cells were inoculated at 5×10^5 cells/mL with the final culture volume of 50 mL in 250 mL flasks. The shaker flasks cultures were grown in the incubator at 36° C., with 5% CO2 and agitation rate of 160 rpm.
(§3) Cultures were fed with bolus defined feed media on Days 3, 6, and 8 with the feed volume of 5-6% on Day 3, 9% on Day 6 and 9% on Day 8. Cultures were stopped and harvested on Day 11. However, if the culture viability on Day 11 was >70%, culture duration was extended beyond day 11 by introducing 4th feed on Day 11 and 5th feed on day 13 if necessary. Feed volume on Day 11 ranged from 5% to 8%, depending on the culture performance. Day 13 feed ranged from 2.5% to 3.0%. Glucose was fed as needed with typical target concentration of 7-8 g/L.
(§4) On selective days during the production run, small volumes of cultures were taken out to assess viable cell density and % viability using the CEDEX cell counter (Roche Innovatis AG). Titer was also determined on collected samples, using the high-throughput HPLC analytical method.
Materials and Methods: CHO cell line A was cultured as in Example 2. The effect of dipeptide Ala-His (added at 1 g/L) was compared to no added dipeptide (control) and dipeptide His-Gly. The culture period was 13 to 14 days, at which point titer and viability were assessed.

CHO cell line C = experiment: Fed-batch shake flask production culture in serum-free defined medium: titer, viability, growth, metabolic profiles; assay type: cell-based, Chinese hamster; details: for day 11 titer: cell line C, culture period 11 days (Example 4, FIG. 5)
Experimental: as §1, §2, §3, §4
Materials and Methods: CHO cell line C was cultured as in Example 2. The dipeptides tested were Tyr-Lys, Thr-Phe, His-Gly, Tyr-Ala, Gly-His, Tyr-His, Tyr-Val, and a combination of Tyr-His and Thr-Phe. The culture period was 11 days, at which point titer and viability were assessed.
Materials and Methods: CHO cell line C was used for this experiment, and cultured as in Example 2. Titer, viability, viable cell density, specific productivity, and cell diameter were determined each day from day 6 to 13 or 14 of cell culture. Tyr-His dipeptide was tested at 0.5 g/L and 1 g/L, and compared to the addition of no dipeptide.

CHO cells = experiment: Recombinant protein expression from CHO cells in chemically defined medium (summary statements); assay type: cell-based, Chinese hamster; details: two different CHO cell lines expressing two different recombinant antibodies
[1] = reference #1; cited from earlier work
[2] = Solubility of tyrosine-containing dipeptides
CHO cell line D = experiment: 6-day batch culture in serum-free defined production medium: titer and viability; assay type: cell-based, Chinese hamster; details: 1 to 4 g/L, 6 days batch culture; for titer: over the negative control
Experimental: Materials and Methods: CHO cell line D, which produces a fully human recombinant antibody, was used for this experiment. Cells were inoculated at 2×10^6 cells/mL with a final culture volume of 2.0 mL into serum-free defined production medium. Experimental samples contained the dipeptides His-Glu, Glu-His, His-Ser, and His-Gln from 1 to 4 g/L. Control wells were set up containing either no added dipeptide as a negative control, or containing peptone at 10 g/L as a positive control. The cultures were incubated as a batch culture for 6 days, at which point the cells were harvested and titer and viability determined.

[3] = supplement by itself in serum-free, peptone-free production medium

| Molecule | day 11 titer (CHO cell line C) | viability (CHO cell line D) | titer (CHO cell line D) | other results |
| --- | --- | --- | --- | --- |
| His-Gly | moderately improved titer |  |  | viability (CHO cell line A; Ala-His added at 1 g/L): better at maintaining viability; titer improvement as compared to control (CHO cell line A): more than 10%; productivity and culture performance (CHO cells): improve productivity and culture performance |
| Gly-His | adversely affected titer |  |  | productivity and culture performance (CHO cells): negative effect |
| N[C@@H](Cc1ccc(O)cc1)C(=O)N[C@@H](Cc1c[nH]cn1)C(=O)O [Tyr-His] (H-Tyr-His-OH; N-terminus and C-terminus assumed) |  |  |  | Solubility (g/L)- ref. #1 [1]: 100 g/L (≈ 314 mM); Solubility tested [2]: readily soluble |
| His-Gln |  | significantly improved | not significantly increased |  |
| His-Ser |  | significantly improved | not significantly increased |  |
| His-Glu |  | significantly improved | not significantly increased |  |
| Thr-Phe | little to no effect |  |  | recombinant protein production (CHO cell line C; [3]): little to no effect; viability (CHO cell line C; [3]): little to no effect |
| Glu-His |  | significantly improved | not significantly increased |  |
| Tyr-Ala | significantly improved titer |  |  |  |
| Ala-His |  |  |  | viability (CHO cell line A; Ala-His added at 1 g/L): maintain increased viability; titer (CHO cell line A; Ala-His added at 1 g/L, vs control): also improved titer, but not as much as His-Gly |
| Tyr-Val | significantly improved titer |  |  |  |
| CSCC[C@H](N)C(=O)N[C@@H](Cc1ccc(O)cc1)C(=O)O [Met-Tyr] (H-Met-Tyr-OH; N-terminus and C-terminus assumed) |  |  |  | Solubility tested [2]: Not soluble |
| NCCCC[C@H](NC(=O)[C@@H](N)Cc1ccc(O)cc1)C(=O)O [Tyr-Lys] (H-Tyr-Lys-OH; N-terminus and C-terminus assumed) |  |  |  | Solubility (g/L)- ref. #1 [1]: 81 g/L (≈ 262 mM); Solubility tested [2]: readily soluble |
